Assay results published in patent EP1862454A1, “Novel compounds, isomer thereof or pharmaceutically acceptable salts thereof as vanilloid receptor antagonist; and a pharmaceutical composition containing the same” (Amorepacific Corporation, priority 2006, dated 2007).

Assays:
vanilloid receptor = target: T1, vanilloid receptor (Rattus norvegicus, UniProt O35433); experiment: 45Ca influx test in primary culture of neonatal rat DRG neurons, inhibition of the capsaicin response; format: cell-based, SD rats; details: DRG nerve cells; capsaicin 0.5 µM; 45Ca 10 µCi/ml; 10 mins at room temperature; read-out: Antagonist Calcium Uptake Test (IC50)
T1 construct: DRG nerve cells from the primary culture of 2 days were equilibrated; endogenous in cells; host or cells: primary culture of dorsal root ganglion neurons from neonatal SD rats
Procedure: 1) Separation of spinal dorsal root ganglia (DRG) in newborn rats and primary culture thereof
Neonatal (2-3 day old or younger than 2-3 day old) SD rats were put in ice for 5 minutes to anesthetize and disinfected with 70% ethanol. DRG of all part of spinal cord were dissected (Wood et al., 1988, J. Neurosci. 8, pp3208-3220) and collected in DME/F12 medium to which 1.2g/l sodium bicarbonate and 50mg/l gentamycin were added. The DRG were incubated sequentially at 37°C for 30 min in 200 U/ml collagenase and 2.5mg/ml trypsin, separately. The ganglia were washed twice with DME/F12 medium supplemented with 10% horse serum, triturated through a fire-polished Pasteur pipette, filtered through Nitex 80 membrane to obtain single cell suspension and the suspension was washed once more. This was subjected to centrifugation, then resuspended in cell culture medium at certain level of cell density. As the cell culture medium, DME/F12 medium supplemented with 10% horse serum was diluted with identical medium conditioned by C6 glioma cells 2 days on a confluent monolayer (1:1), and NGF (Nerve Growth Factor) was added to adjust 200ng/ml as final concentration. After the cells were grown for 2 days in medium where cytosine arabinoside (Ara-C, 100 µM) was added to kill dividing nonneuronal cells, medium was changed to one without Ara-C. The resuspended cells were plated at a density of 1500-2000 neurons/well onto Terasaki plates previously coated with 10 µg/ml poly-D-ornithine.
2) ^45 Ca influx experiments
DRG nerve cells from the primary culture of 2 days were equilibrated by washing 4 times with HEPES (10mM, pH 7.4)-buffered Ca ^2+, Mg^2+-free HBSS (H-HBSS). The solution in each well was removed from the individual well. Medium containing the test compound plus capsaicin (final concentration 0.5 µM) and ^45Ca (final concentration 10 µCi/ml) in H-HBSS was added to each well and incubated at room temperature for 10 mins. Terasaki plates were washed five times with H-HBSS and dried at room temperature. To each well, 0.3% SDS (10 µl) was added to elute ^45Ca. After the addition of scintillation cocktail into each well, the amount of ^45Ca influx into neuron was measured by counting radioactivity. Antagonistic activities of test compounds against vanilloid receptor were calculated as percent of the inhibition of maximal response of capsaicin at a concentration of 0.5 µM. […]

Male ICR mice = experiment: Analgesic activity test: mouse writhing test induced with phenyl-p-quinone; format: in vivo; details: writhes counted vs control group
Procedure: 2. Analgesic activity test: Mouse writhing test by inducing with phenyl-p-quinone
Male ICR mice (mean body weight 25g) were maintained in a controlled lighting environment (12 h on/ 12 h off) for experiment. Animals received an intraperitoneal injection of 0.3ml of the chemical irritant phenyl-p-quinone (dissolved in saline containing 5% ethanol to be a dose of 4.5mg/kg) and 6 mins later, the number of abdominal constrictions was counted in the subsequent 6 mins period. Animals (10 animals/group) received 0.2ml of test compounds solution in vehicle of ethanol/Tween 80/saline (10/10/80) intraperitoneally 30 min before the injection of phenyl-p-quinone. A reduction in the number of writhes responding to the test drug compound relative to the number responding in saline control group was considered to be indicative of an analgesic effect. Analgesic effect was calculated by % inhibition equation (% inhibition=(C-T)/C x 100), wherein C and T represent the number of writhes in control and compound-treated group, respectively (Table 2).

T1 sequence (O35433 whole entry): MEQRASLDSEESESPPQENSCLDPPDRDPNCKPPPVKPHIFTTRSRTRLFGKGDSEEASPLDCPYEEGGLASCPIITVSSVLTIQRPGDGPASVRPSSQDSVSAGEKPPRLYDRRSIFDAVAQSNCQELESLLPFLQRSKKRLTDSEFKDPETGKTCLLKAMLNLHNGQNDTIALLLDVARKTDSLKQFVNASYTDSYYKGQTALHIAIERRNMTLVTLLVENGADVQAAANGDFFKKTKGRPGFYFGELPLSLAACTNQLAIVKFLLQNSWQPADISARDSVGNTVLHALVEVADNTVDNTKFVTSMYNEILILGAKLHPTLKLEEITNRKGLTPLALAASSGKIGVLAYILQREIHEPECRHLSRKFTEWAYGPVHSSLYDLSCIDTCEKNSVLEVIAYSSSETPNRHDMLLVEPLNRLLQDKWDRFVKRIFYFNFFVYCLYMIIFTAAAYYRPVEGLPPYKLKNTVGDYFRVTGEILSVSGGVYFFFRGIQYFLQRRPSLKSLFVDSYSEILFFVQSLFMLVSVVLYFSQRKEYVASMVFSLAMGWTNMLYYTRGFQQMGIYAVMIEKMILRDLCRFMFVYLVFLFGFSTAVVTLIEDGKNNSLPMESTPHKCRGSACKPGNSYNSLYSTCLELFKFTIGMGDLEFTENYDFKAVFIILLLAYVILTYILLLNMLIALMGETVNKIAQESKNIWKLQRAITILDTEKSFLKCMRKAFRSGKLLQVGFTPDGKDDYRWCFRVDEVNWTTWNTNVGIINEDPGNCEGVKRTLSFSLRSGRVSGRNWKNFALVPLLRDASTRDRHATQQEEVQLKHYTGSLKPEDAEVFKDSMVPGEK

| IC50 (vanilloid receptor) [nM] | Compound | Analgesic effect (%Inhibition) (Male ICR mice; Dose 0.3 mg/kg intraperitoneally 30 min before phenyl-p-quinone (4.5mg/kg)) [%] | Analgesic effect (%Inhibition) (Male ICR mice; Dose 1 mg/kg intraperitoneally 30 min before phenyl-p-quinone (4.5mg/kg)) [%] |
| --- | --- | --- | --- |
| 35 | C=Cc1cc(CNC(=S)NCc2ccc(C(C)(C)C)cc2)cc(F)c1NS(C)(=O)=O [Example 3, N-{4-[3-(4-t-butylbenzyl)thioureido-methyl]-2-fluoro-6-vinyl-phenyl}methanesulfonamide] |  | 57 |
| 330 | C=Cc1cc(CNC(=S)NCc2ccc(C(C)(C)C)cc2)cc(C(F)(F)F)c1NS(C)(=O)=O [Example 2, N-{4-[3-(4-t-butylbenzyl)thioureido-methyl]-2-trifluoromethyl-6-vinyl-phenyl}methanesulfonamide] |  |  |
| 93 | C=Cc1cc(CNC(=S)NCc2ccc(C(C)(C)C)cc2)cc(Cl)c1NS(C)(=O)=O [Example 4, N-{4-[3-(4-t-butylbenzyl)thioureido-methyl]-2-chloro-6-vinyl-phenyl}methanesulfonamide] |  |  |

The remaining lines, values behind:

| Compound | IC50 (vanilloid receptor) [nM] | Analgesic effect (%Inhibition) (Male ICR mice; Dose 0.3 mg/kg intraperitoneally 30 min before phenyl-p-quinone (4.5mg/kg)) [%] | Analgesic effect (%Inhibition) (Male ICR mice; Dose 1 mg/kg intraperitoneally 30 min before phenyl-p-quinone (4.5mg/kg)) [%] |
| --- | --- | --- | --- |
| C=Cc1cc(CNC(=S)NCc2ccc(C(C)(C)C)cc2)ccc1NS(C)(=O)=O [Example 1, N-{4-[3-(4-t-butylbenzyl)thioureido-methyl]-2-vinyl-phenyl} methanesulfonamide] | 54 | 93 |  |
| C=Cc1cc(C(C)NC(=S)NCc2ccc(C(C)(C)C)cc2)cc(F)c1NS(C)(=O)=O (centres unmarked) [Example 6, N-(4-{1-[3-(4-t-butylbenzyl)thioureido]ethyl}-2-fluoro-6-vinyl-phenyl) methanesulfonamide] | 120 |  |  |
| C=Cc1cc(CNC(=S)NCc2ccc(C(C)(C)C)cc2)cc(C)c1NS(C)(=O)=O [Example 5, N-{4-[3-(4-t-butylbenzyl)thioureido-methyl]-2-methyl-6-vinyl-phenyl}methanesulfonamide] | 190 |  |  |
